Results as given in patent US20250195521A1 (Revolution Medicines, Inc., priority 2020, published 2025).
Read-outs that look alike come from different tables or passages of the source.

Assays:
KRAS WT = KRAS WT (Homo sapiens (Human), UniProt P01116+P62937); test: Ras-Raf disruption/FRET/MOA assay (BRAF RBD, Cyclophilin A); type: biochemical
Procedure: (§1) Compound is present in plate wells as a 10-point 3-fold dilution series starting at a final concentration of 30 μM. After incubation at 25° C. for 3 hours, a mixture of Anti-His Eu—W1024 and anti-GST allophycocyanin is then added to assay sample wells at final concentrations of 10 nM and 50 nM, respectively, and the reaction incubated for an additional 1.5 hours. […] Compounds that facilitate disruption of a Ras: RAF complex are identified as those eliciting a decrease in the TR-FRET ratio relative to DMSO control wells.
(§2) Disruption of B-Raf Ras-Binding Domain (BRAF^RBD) Interaction with K-Ras by Compounds of the Invention (Also Called a FRET Assay or an MOA Assay)
(§3) Note—The following protocol describes a procedure for monitoring disruption of K-Ras G12C (GMP-PNP) binding to BRAF^RBD by a compound of the invention. This protocol may also be executed substituting other Ras proteins or nucleotides.
(§4) The purpose of this biochemical assay was to measure the ability of test compounds to facilitate ternary complex formation between a nucleotide-loaded K-Ras isoform and Cyclophilin A; the resulting ternary complex disrupts binding to a BRAF^RBD construct, inhibiting K-Ras signaling through a RAF effector. Data is reported as IC50 values.
(§5) In assay buffer containing 25 mM HEPES pH 7.3, 0.002% Tween20, 0.1% BSA, 100 mM NaCl and 5 mM MgCl2, tagless Cyclophilin A, His6-K-Ras-GMPPNP, and GST-BRAF^RBD were combined in a 384-well assay plate at final concentrations of 25 μM, 12.5 nM and 50 nM, respectively. Compound was present in plate wells as a 10-point 3-fold dilution series starting at a final concentration of 30 μM. After incubation at 25° C. for 3 hours, a mixture of Anti-His Eu—W1024 and anti-GST allophycocyanin was then added to assay sample wells at final concentrations of 10 nM and 50 nM, respectively, and the reaction incubated for an additional 1.5 hours. […] Compounds that facilitate disruption of a K-Ras: RAF complex were identified as those eliciting a decrease in the TR-FRET ratio relative to DMSO control wells.

NRAS G12C = NRAS G12C (Homo sapiens (Human), UniProt P01111+P62937, G12C); test: as above; type: biochemical
Sequence of NRAS G12C (P01111 whole entry G12C): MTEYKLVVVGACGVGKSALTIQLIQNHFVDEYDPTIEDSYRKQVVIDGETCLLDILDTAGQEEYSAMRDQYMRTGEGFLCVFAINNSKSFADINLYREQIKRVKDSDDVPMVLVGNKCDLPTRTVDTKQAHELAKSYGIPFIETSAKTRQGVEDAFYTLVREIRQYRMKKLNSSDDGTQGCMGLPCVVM
Sequence of NRAS G12C (P62937 whole entry): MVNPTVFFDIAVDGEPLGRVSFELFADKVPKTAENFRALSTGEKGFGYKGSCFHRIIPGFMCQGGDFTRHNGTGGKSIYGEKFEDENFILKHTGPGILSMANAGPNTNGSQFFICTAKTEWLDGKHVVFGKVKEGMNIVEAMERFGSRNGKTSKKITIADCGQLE
Procedure: as §1, §2, §3, §4, §5

KRAS G12D = KRAS G12D (Homo sapiens (Human), UniProt P01116+P62937, G12D); test: as above; type: biochemical
Sequence of KRAS G12D (P01116 other isoform, or with tags, fused parts or gaps G12D): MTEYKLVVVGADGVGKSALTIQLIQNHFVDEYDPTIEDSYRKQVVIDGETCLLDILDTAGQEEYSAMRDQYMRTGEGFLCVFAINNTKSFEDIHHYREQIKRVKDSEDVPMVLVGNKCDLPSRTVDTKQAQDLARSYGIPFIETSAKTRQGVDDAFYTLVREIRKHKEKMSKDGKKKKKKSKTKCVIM
Sequence of KRAS G12D (P62937 whole entry): as the sequence (P62937 whole entry) above
Procedure: as §1, §2, §3, §4, §5

KRAS G13C = KRAS G13C (Homo sapiens (Human), UniProt P01116+P62937, G13C); test: as above; type: biochemical
Sequence of KRAS G13C (P01116 other isoform, or with tags, fused parts or gaps G13C): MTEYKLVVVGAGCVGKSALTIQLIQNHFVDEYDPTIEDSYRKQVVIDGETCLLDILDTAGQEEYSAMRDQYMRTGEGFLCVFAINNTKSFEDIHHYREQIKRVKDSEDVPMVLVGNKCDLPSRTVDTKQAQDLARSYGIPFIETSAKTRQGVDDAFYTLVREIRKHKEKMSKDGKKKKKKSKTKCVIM
Sequence of KRAS G13C (P62937 whole entry): as the sequence (P62937 whole entry) above
Procedure: as §1, §2, §3, §4, §5

KRAS G12S = KRAS G12S (Homo sapiens (Human), UniProt P01116+P62937, G12S); test: as above; type: biochemical
Sequence of KRAS G12S (P01116 other isoform, or with tags, fused parts or gaps G12S): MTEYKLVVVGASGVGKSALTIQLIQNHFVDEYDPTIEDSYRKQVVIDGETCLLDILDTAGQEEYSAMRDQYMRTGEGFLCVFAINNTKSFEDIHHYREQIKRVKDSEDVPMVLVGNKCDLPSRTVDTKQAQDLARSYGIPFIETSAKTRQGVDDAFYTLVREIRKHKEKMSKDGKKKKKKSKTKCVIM
Sequence of KRAS G12S (P62937 whole entry): as the sequence (P62937 whole entry) above
Procedure: as §1, §2, §3, §4, §5

KRAS G12C = KRAS G12C (Homo sapiens (Human), UniProt P01116+P62937, G12C); test: as above; type: biochemical
Sequence of KRAS G12C (P01116-2 other isoform, or with tags, fused parts or gaps G12C): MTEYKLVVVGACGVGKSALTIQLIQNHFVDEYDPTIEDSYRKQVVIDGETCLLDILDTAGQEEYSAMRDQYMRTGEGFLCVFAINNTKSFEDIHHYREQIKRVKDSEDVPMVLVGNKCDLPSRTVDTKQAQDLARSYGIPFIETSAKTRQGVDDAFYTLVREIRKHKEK
Sequence of KRAS G12C (P62937 whole entry): as the sequence (P62937 whole entry) above
Procedure: as §1, §2, §3, §4, §5

KRAS G12V = KRAS G12V (Homo sapiens (Human), UniProt P01116+P62937, G12V); test: as above; type: biochemical
Sequence of KRAS G12V (P01116 other isoform, or with tags, fused parts or gaps G12V): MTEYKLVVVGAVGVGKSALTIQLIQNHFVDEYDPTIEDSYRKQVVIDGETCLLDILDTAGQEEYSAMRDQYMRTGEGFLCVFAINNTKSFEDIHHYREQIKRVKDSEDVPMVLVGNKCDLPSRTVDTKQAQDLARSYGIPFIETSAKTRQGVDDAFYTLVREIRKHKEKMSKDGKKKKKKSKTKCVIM
Sequence of KRAS G12V (P62937 whole entry): as the sequence (P62937 whole entry) above
Procedure: as §1, §2, §3, §4, §5

KRAS G13D = KRAS G13D (Homo sapiens (Human), UniProt P01116+P62937, G13D); test: as above; type: biochemical
Sequence of KRAS G13D (P01116 other isoform, or with tags, fused parts or gaps G13D): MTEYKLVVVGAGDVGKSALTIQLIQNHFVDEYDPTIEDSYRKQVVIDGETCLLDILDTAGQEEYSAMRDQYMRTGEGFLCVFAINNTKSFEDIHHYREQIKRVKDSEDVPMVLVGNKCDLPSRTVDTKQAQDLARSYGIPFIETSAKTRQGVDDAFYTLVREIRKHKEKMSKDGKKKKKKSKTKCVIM
Sequence of KRAS G13D (P62937 whole entry): as the sequence (P62937 whole entry) above
Procedure: as §1, §2, §3, §4, §5

[1] = test system: Capan-1 cells (K-Ras G12V); test: CellTiter-Glo cell viability, Capan-1; type: cell-based, human; conditions: read-out: Capan-1 Cell Viability IC50
In short: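 Compounds were dispensed directly onto seeded cells and incubated until day 5, then plates were equilibrated at room temperature for about 30 min before CellTiter-Glo luminescence readout. Signals were normalized as (sample/average DMSO)×100 and fitted with a four-parameter logistic model.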

[2] = test system: K-Ras G12C (NCI-H358 cells); test: Potency assay: pERK in NCI-H358 cells; type: cell-based, human; conditions: Homo sapiens; NCI-H358 cells, 4 hours; read-out: pERK EC50 (H358 KRAS G12C)
In short: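 Cells plated the day before were exposed for 4 h at 37° C, 5% CO2 to a 10-point, 3-fold DMSO dilution series (10 mM top stock), in duplicate. Phospho-ERK was read by AlphaLISA SureFire Ultra or by In-Cell Western with DRAQ5 DNA stain, and IC50 came from a 4-parameter sigmoidal fit.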

[3] = read-out: KRAS WT FRET data IC50
[4] = read-out: NRAS G12C FRET data IC50
[5] = read-out: KRAS G13D FRET data IC50
[6] = Homo sapiens, CAPAN-1, 120 h, K-Ras G12V, 5-day treatment

Sequence of KRAS WT (P01116 other isoform, or with tags, fused parts or gaps): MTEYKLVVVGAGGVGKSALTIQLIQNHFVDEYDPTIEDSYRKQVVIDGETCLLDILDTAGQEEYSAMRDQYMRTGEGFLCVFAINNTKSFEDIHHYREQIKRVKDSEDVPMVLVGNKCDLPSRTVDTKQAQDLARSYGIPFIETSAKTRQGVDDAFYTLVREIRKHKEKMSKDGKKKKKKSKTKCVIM
Sequence of KRAS WT (P62937 whole entry): as the sequence (P62937 whole entry) above

SMILES | IC50 (KRAS WT; [3]) [µM] | IC50 (NRAS G12C; [4]) [µM] | IC50 (KRAS G12D; read-out: KRAS G12D FRET IC50) [µM] | IC50 (KRAS G13C; read-out: KRAS G13C FRET IC50) [µM] | IC50 (KRAS G12S; read-out: KRAS G12S FRET IC50) [µM] | IC50 (KRAS G12C; read-out: KRAS G12C FRET IC50) [µM] | IC50 (KRAS G12V; read-out: KRAS G12V FRET IC50) [µM] | IC50 (KRAS G13D; [5]) [µM] | IC50 [1, 6] [µM] | IC50 (KRAS WT; KRAS WT FRET data IC50) [µM] | IC50 (NRAS G12C; NRAS G12C FRET data IC50) [µM] | IC50 (KRAS G12D; KRAS G12D FRET IC50) [µM] | IC50 (KRAS G13C; KRAS G13C FRET IC50) [µM] | IC50 (KRAS G12S; KRAS G12S FRET IC50) [µM] | IC50 (KRAS G12V; KRAS G12V FRET IC50) [µM] | IC50 (KRAS G13D; KRAS G13D FRET data IC50) [µM] | IC50 ([1]; Homo sapiens, CAPAN-1, 120 h) [µM] | IC50 (KRAS G12C; KRAS G12C FRET IC50) [µM] | IC50 ([1]; K-Ras G12V, 5-day treatment) [µM] | EC50 [2] [µM]
CCn1c(-c2cccnc2[C@H](C)OC)c2c3cc(ccc31)-c1cc(O)cc(c1)C[C@H](NC(=O)[C@H](C(C)C)N(C)C(=O)OCc1ccccc1)C(=O)N1CCC[C@H](N1)C(=O)OCC(C)(C)C2 [Compound A185] | 1 to 10 | 1 to 10 | > 10 | 0.1 to 1 | 1 to 10 | 1 to 10 | 1 to 10 | 1 to 10 | 1 to 10 |  |  |  |  |  |  |  |  |  |  | 
CCn1c(-c2cccnc2[C@H](C)OC)c2c3cc(ccc31)-c1cc(O)cc(c1)C[C@H](NS(=O)(=O)c1ccc(OC)cc1OC)C(=O)N1CCC[C@H](N1)C(=O)OCC(C)(C)C2 [Compound A198] |  |  |  |  |  |  |  |  |  | > 10 | > 10 | > 10 | > 10 | > 10 | > 10 | > 10 | > 10 |  |  | 
CCn1c(-c2cccnc2[C@H](C)OC)c2c3cc(ccc31)-c1cc(O)cc(c1)C[C@H](NC(=O)N1CCOCC1)C(=O)N1CCC[C@H](N1)C(=O)OCC(C)(C)C2 [Compound A199] |  |  |  |  |  |  |  |  |  | 1 to 10 | 1 to 10 | > 10 | 1 to 10 | > 10 |  | 1 to 10 | > 10 | 1 to 10 |  | 
CCn1c(-c2cccnc2[C@H](C)OC)c2c3cc(ccc31)-c1csc(n1)C[C@H](NC(=O)[C@H](C(C)C)N(C)C(=O)N1CC(OC)C1)C(=O)N1CCC[C@H](N1)C(=O)OCC(C)(C)C2 [Compound A205] | 0.1 to 1 | 0.01 to 0.1 | 0.1 to 1 | 0.1 to 1 | 0.1 to 1 | 0.01 to 0.1 | 0.1 to 1 | 0.1 to 1 |  |  |  |  |  |  |  |  |  |  | 0.01 to 0.1 | 
CCn1c(-c2cccnc2[C@H](C)OC)c2c3cc(ccc31)-c1cccc(c1)C[C@H](NC(=O)[C@H](C(C)C)N(C)C(=O)[C@@H]1CCN(C3COC3)C1)C(=O)N1CCC[C@H](N1)C(=O)OCC(C)(C)C2 [Compound A206] | 1 to 10 | 1 to 10 | > 10 | 1 to 10 | > 10 | 1 to 10 | > 10 | 1 to 10 | > 10 |  |  |  |  |  |  |  |  |  |  | 
CCn1c(-c2cccnc2[C@H](C)OC)c2c3cc(ccc31)-c1csc(n1)C[C@H](NC(=O)[C@H](C(C)C)N1CCC3(CCN(C)C3)C1=O)C(=O)N1CCC[C@H](N1)C(=O)OCC(C)(C)C2 (stereo partly drawn) [Compound A213] | 1 to 10 | 1 to 10 | 1 to 10 | 1 to 10 | 1 to 10 | 1 to 10 | > 10 | 1 to 10 | > 10 |  |  |  |  |  |  |  |  |  |  | 
CCn1c(-c2cnccc2COC)c2c3cc(ccc31)-c1cc(O)cc(c1)C[C@H](NC(=O)[C@H](C(C)C)N(C)C(=O)N1CCOCC1)C(=O)N1CCC[C@H](N1)C(=O)OCC(C)(C)C2 [Compound A257] | 0.1 to 1 | 0.1 to 1 | 1 to 10 | 0.1 to 1 | 0.1 to 1 | 0.1 to 1 | 0.1 to 1 | 0.1 to 1 |  |  |  |  |  |  |  |  |  |  |  | < 5
CCn1c(-c2cccnc2[C@H](C)OC)c2c3cc(ccc31)-c1cccc(c1)C[C@H](NC(=O)[C@H](C(C)C)N(C)C(=O)[C@H]1OCC[C@H]1c1ccccc1)C(=O)N1CCC[C@H](N1)C(=O)OCC(C)(C)C2 [Compound A429] | 1 to 10 | 1 to 10 | > 10 | > 10 | > 10 | 1 to 10 | > 10 | > 10 |  |  |  |  |  |  |  |  |  |  |  | 
